This note sets out measurements from article PMC4510645, “Discovery of intramolecular trans-sialidases in human gut microbiota suggests novel mechanisms of mucosal adaptation” (Nature Communications, 2015).

Values joined by “and” are separate entries in the source; they are usually repeats but may differ in a detail not shown here. Equal values may be shown once. Read-outs that look alike come from different tables or passages of the source.

Assay [1] has as its target T1, RgNanH (Mediterraneibacter gnavus (Ruminococcus gnavus), UniProt A7B557).
T1 sequence (A7B557 26-723): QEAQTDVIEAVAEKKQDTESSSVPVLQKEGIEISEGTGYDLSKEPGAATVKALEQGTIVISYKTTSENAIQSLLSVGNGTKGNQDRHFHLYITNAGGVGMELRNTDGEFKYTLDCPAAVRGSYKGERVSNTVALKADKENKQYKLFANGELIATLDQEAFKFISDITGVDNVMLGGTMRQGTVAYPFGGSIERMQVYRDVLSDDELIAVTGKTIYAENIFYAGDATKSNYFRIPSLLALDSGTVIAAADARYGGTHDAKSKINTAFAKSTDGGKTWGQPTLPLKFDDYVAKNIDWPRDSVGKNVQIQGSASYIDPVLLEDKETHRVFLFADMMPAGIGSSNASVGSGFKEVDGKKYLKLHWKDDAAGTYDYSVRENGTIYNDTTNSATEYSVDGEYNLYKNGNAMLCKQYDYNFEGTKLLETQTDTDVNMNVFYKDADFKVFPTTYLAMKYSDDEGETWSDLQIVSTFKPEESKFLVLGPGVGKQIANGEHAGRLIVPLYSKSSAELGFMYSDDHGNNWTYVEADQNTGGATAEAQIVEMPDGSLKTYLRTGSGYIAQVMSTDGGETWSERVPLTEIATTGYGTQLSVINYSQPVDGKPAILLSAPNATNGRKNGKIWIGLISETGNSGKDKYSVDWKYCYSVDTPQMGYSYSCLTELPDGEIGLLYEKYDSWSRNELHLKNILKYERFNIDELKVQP
The experiment in a line: Specificity against sialyl-oligosaccharides, HPAEC-PAD. Type of assay: biochemical, Ruminococcus gnavus ATCC 29149. Set-up: key to Activity RgNanH: +: Activity was defined as disappearance of the substrate peak and appearance of a lower-molecular weight peak, which could correspond to the desialylated substrate. Particulars: substrate 1 mM, 1 nM enzyme, 37 °C, pH 6.5, overnight. As to the method: (§1) Figure 2 Specificity of RgNanH towards sialylated oligosaccharides. The enzymes were incubated with sialylated substrates at 37 °C, pH 6.5, overnight and the reaction products were analysed by HPAEC-PAD. Control reactions without enzyme were also performed. The injection peak is marked (inj). Glycerol (gly) was also present in AkmNan0625. (a) Standards (Lac, Neu5Ac, 3′SL and 6′SL), (b) 3′SL, (c) 6′SL and (d) 3'-α-sialyl-N-acetyllactosamine (3′SLacNAc). AkmNan1835 has a similar profile to […].
(§2) The purified enzymes were incubated with the substrate in buffer made from 20 mM Na2HPO4 and 20 mM NaH2PO4 adjusted to pH 6.5 containing 1 mg ml^−1 BSA at 37 °C unless otherwise stated. For 4MU-Neu5Ac, the progression of the reaction was monitored by the release of the MU using a 96-well plate reader (BMG Labtech, Ortenberg, Germany) using fluorescence with an excitation at 340 nm and an emission at 420 nm. For determining the optimal temperature, the assay was carried out in 20 mM PBS at pH 7.4. For determining the optimal pH, the assay was carried out at 37 °C using buffer made from 20 mM Na2HPO4 and 20 mM NaH2PO4 in varying proportions to obtain the desired pH. PNP release from PNP-Neu5Ac was monitored in a similar way measuring absorbance at 405 nm every 60 s. For 3′SL, the reaction was monitored by HPAEC-PAD. An aliquot of the reaction was removed from the main reaction volume at the reaction stopped by boiling for 20 min, the enzyme was then removed by centrifugation at 17,000g for 10 min and filtration with a 0.2-μm filter (Millipore, Billerica, USA). The sugars were separated by HPAEC with an isocratic gradient of 100 mM NaOH and 100 mM NaAC at 1 ml min^−1 on a CarboPac PA1 protected with a guard column and detected using PAD on a Dionex ICS5000 system (Thermo Scientific, Hemel Hempstead, UK). The column was cleaned with 10 ml of 500 mM NaOH and 500 mM NaAc, and the column was re-equilibrated with 100 mM NaOH and 100 mM NaAc. An internal standard of fucose was used to quantify the results.
(§3) For specificity tests against sialylated oligosaccharides (1 mM) and glycoproteins (1 mg ml^−1), 1 nM of enzyme was incubated with the substrate at 37 °C, pH 6.5, overnight.

The subject of assay [2] is AkmNan0625 and AkmNan1835. The experiment in a line: Specificity against sialyl-oligosaccharides, HPAEC-PAD (control sialidases). It counts as biochemical, Akkermansia muciniphila. Set-up: key to Activity AkmNan0625 and AkmNan1835: +: Activity was defined as disappearance of the substrate peak and appearance of a lower-molecular weight peak, which could correspond to the desialylated substrate. Particulars: substrate 1 mM, 1 nM enzyme, 37 °C, pH 6.5, overnight. As to the method:
as §1
All chemicals were obtained from Sigma (St Louis, USA) unless otherwise stated. The A. muciniphila sialidases, termed here AkmNan0625 and AkmNan1835, were obtained by His-Tag overexpression of their genes (Amuc_0625 and Amuc_1835, respectively)[56] in E. coli BL21(DE3) and subsequent purification to homogeneity by immobilized metal affinity chromatography as described below. The sialylated oligosaccharides and OC were obtained from Carbosynth (Berks, UK).
as §2, §3

Assay [3] concerns the target T1, RgNanH. The experiment in a line: Inhibition of RgNanH activity against 4MU-Neu5Ac by neuraminidase inhibitors. It counts as biochemical, Ruminococcus gnavus ATCC 29149. Particulars: for IC50 / LogIC50: 4MU-Neu5Ac 0.51 mM, pre-incubated 15 min at 37 °C, pH 6.5. As to the method: Figure 1 Kinetic analysis of the hydrolysis of sialylated substrates by RgNanH in presence or absence of inhibitors. Substrate (a) 4MU-Neu5Ac or (b) PNP-Neu5Ac was incubated with RgNanH ([…] and 0.43 nM, respectively) at 37 °C, pH 6.5 and the release of product measured using a plate reader. (c) Inhibition of RgNanH (1.00 nM) incubated with 4MU-Neu5Ac (0.51 mM) by zanamivir (●), Neu5Ac2en (▪), siastatin B (▴) and OC (♦), the rates are normalized to a % of the uninhibited rate. [I] is the inhibitor concentration. (d) 3′SL was incubated with RgNanH (2.25 nM) and the release of product measured by HPAEC-PAD. Experiments were done at least in duplicate (usually triplicate) and the error bars show the s.e.m.
as §2, with “results. […]” for “results.”

Assay [4] has as its target T1, RgNanH. Nature of the assay: Kinetic parameters of RgNanH with sialylated substrates. Type of assay: biochemical, Ruminococcus gnavus ATCC 29149. The note with it: pH 6.5, 37 °C. As to the method:
as §2
For 4MU-Neu5Ac and 3′SL, the rate of hydrolysis without enzyme was not significant, thus raw data were used. However, for pNP-Neu5Ac, the rate of hydrolysis without enzyme was significant, thus the rate with enzyme was corrected by the subtraction of the rate without enzyme at each concentration of substrate. For 3′SL, the rate of reaction was calculated by plotting the amount of substrate remaining over the course of >50 % of the reaction using the following equation[58]: […]
Where k is kcat/KM × enzyme concentration, t is time, [S0] and [St] are substrate concentrations at time 0 and t, respectively.
Kinetic data were obtained from at least duplicate (usually triplicate) experiments, and the kinetic parameters were calculated by fitting the initial raw data to the Michaelis–Menten equation using a nonlinear regression analysis programme (Prism 6, GraphPad, San Diego, USA), and error bars (s.e.m.) are shown.

Take `CO[C@@H]1O[C@H](CO)[C@@H](O[C@@H]2O[C@H](CO)[C@H](O)[C@H](O[C@]3(C(=O)O)C[C@H](O)[C@@H](NC(C)=O)[C@H]([C@H](O)[C@H](O)CO)O3)[C@H]2O)[C@H](O[C@@H]2O[C@@H](C)[C@@H](O)[C@@H](O)[C@@H]2O)[C@H]1NC(C)=O` [3′-Sialyl Lewis X methyl glycoside, Neu5Ac-α-2-3-Gal-β-1-4-[Fuc-a-1-3]-GlcNAc-β-OMe]: in assay [1], the “Activity RgNanH” value is “+”. Besides, the “Activity AkmNan0625 and AkmNan1835” value in assay [2] was “+”.
On to `CC(=O)N[C@H]1[C@H]([C@H](O)[C@H](O)CO)O[C@@](O[C@H]2[C@@H](O)[C@@H](CO)O[C@@H](O[C@H]3[C@H](O[C@@H]4O[C@@H](C)[C@@H](O)[C@@H](O)[C@@H]4O)[C@@H](O)C(O)O[C@@H]3CO)[C@@H]2O)(C(=O)O)C[C@@H]1O` (stereo partly drawn) [3′-Sialyl-3-fucosyllactose, Neu5Ac-α-2-3-Gal-β1-4-[Fuc-α-1-3]-Glc], for which, in assay [1], the “Activity RgNanH” value is reported as “+”. For the same molecule, the “Activity AkmNan0625 and AkmNan1835” value in assay [2] is “+”.
For the molecule “Neu5Ac-α-2-3-Gal-β-1-4-GlcNAc [3′-α-Sialyl-N-acetyllactosamine]”, the “Activity RgNanH” value in assay [1] was “+”. Also, the “Activity AkmNan0625 and AkmNan1835” value in assay [2] is “+”.
One may read the IC50 as the concentration at which inhibition is half-maximal. On to `CC(=O)N[C@H]1[C@H]([C@H](O)[C@H](O)CO)OC(C(=O)O)=C[C@@H]1N=C(N)N` [Zanamivir, 4-guanidino-Neu5Ac2en], for which the IC50 in assay [3] (IC50, RgNanH 1.00 nM) is ~12 mM; in assay [3] (RgNanH 1.00 nM, read-out: IC50) it was 11.9 mM. In assay [3] (RgNanH 1.00 nM), this molecule registered a LogIC50 of 1.08±0.07.
With “Neu5Ac-α-2-6-Gal-β-1-4-GlcNAc [6′-α-Sialyl-N-acetyllactosamine]”, the “Activity AkmNan0625 and AkmNan1835” value in assay [2] is reported as “+”.
Consider `CC(=O)N[C@H]1[C@H]([C@H](O)[C@H](O)CO)O[C@@](O[C@H]2[C@@H](O)[C@@H](CO)O[C@@H](O[C@H]3[C@H](O[C@@H]4O[C@@H](C)[C@@H](O)[C@@H](O)[C@@H]4O)[C@@H](NC(C)=O)C(O)O[C@@H]3CO)[C@@H]2O)(C(=O)O)C[C@@H]1O` (stereo partly drawn) [3′-Sialyl Lewis X, Neu5Ac-α-2-3-Gal-β-1-4-[Fuc-a-1-3]-GlcNAc], for which, in assay [1], the “Activity RgNanH” value is listed as “+”. The “Activity AkmNan0625 and AkmNan1835” value in assay [2] was “+”.
For orientation: kcat means the maximal rate divided by the concentration of active sites. For orientation: Km means the concentration of substrate that gives half-maximal velocity. As for `CC(=O)N[C@H]1[C@H]([C@H](O)[C@H](O)CO)O[C@@](Oc2ccc([N+](=O)[O-])cc2)(C(=O)O)C[C@@H]1O` [PNP-Neu5Ac, 2-O-(p-nitrophenyl)-α-D-N-acetylneuraminic acid], the kcat in assay [4] (substrate of RgNanH) is given as <152 ^* min^−1. The Km in assay [4] (substrate of RgNanH, s.e.m.) was > 25000 µM.
`CC(=O)N[C@H]1NC[C@H](C(=O)O)[C@H](O)[C@@H]1O` [Siastatin B]: in assay [3] (RgNanH 1.00 nM), the LogIC50 was −2.31±0.02. Further, in assay [3] (RgNanH 1.00 nM, read-out: IC50), the IC50 is 0.00487 mM.
For `CC(=O)N[C@H]1[C@H]([C@H](O)[C@H](O)CO)OC(OC[C@H]2OC(O)[C@H](O)[C@@H](O)[C@H]2O)(C(=O)O)C[C@@H]1O` (stereo partly drawn) [6′-Sialylgalactose, Neu5Ac-α-2-6-Gal], the “Activity AkmNan0625 and AkmNan1835” value in assay [2] is reported as “+”.
By Vmax is commonly meant the top rate of the reaction or transport when substrate is in excess. Take `CC(=O)N[C@@H]1[C@@H](O)C[C@](Oc2ccc3c(C)cc(=O)oc3c2)(C(=O)O)O[C@H]1C(O)[C@H](O)CO` (stereo partly drawn) [4MU-Neu5Ac, 2′-(4-methylumbelliferyl)-α-D-N-acetylneuraminic acid]: in assay [4] (substrate inhibition, s.e.m.), the Ki came to 2.37 ± 0.65 mM. The kcat in assay [4] (substrate of RgNanH) turned out to be 6210 min⁻¹. For the same molecule, in assay [4] (substrate of RgNanH, s.e.m.), the Km is 590 ± 170 µM and the Vmax was 1.37 ± 0.23 µM/min.
Consider `CC(=O)N[C@H]1[C@H]([C@H](O)[C@H](O)CO)OC(C(=O)O)=C[C@@H]1O` [Neu5Ac2en, 2-deoxy-2,3-didehydro-D-N-acetylneuraminic acid], for which, in assay [3] (RgNanH 1.00 nM), the LogIC50 is 0.15±0.04. Further, the IC50 in assay [3] (RgNanH 1.00 nM, read-out: IC50) was 1.4 mM and 1.41 mM.
As for `CCC(CC)O[C@@H]1C=C(C(=O)O)C[C@H](N)[C@H]1NC(C)=O` [Oseltamivir carboxylate], the LogIC50 in assay [3] (RgNanH 1.00 nM) is −1.53±0.02. In addition, the IC50 in assay [3] (RgNanH 1.00 nM, read-out: IC50) is 0.0296 mM. In assay [3] (compared with Neu5Ac2en (IC50: 1.4 mM to 30 μM)), the “improvement in inhibition of RgNanH” value was ~50 fold.
